Measurements from US20170198011A1, “COMPOSITION FOR TREATING SEPSIS OR SEPTIC SHOCK COMPRISING THE PEPTIDE ORIGINATED FROM THE SMAD6” (Medpacto, Inc., priority 2011, published 2017).
Where no end group is shown, it is not given here. The star is where a group is joined. Palmitoyl = CCCCCCCCCCCCCCCC(=O)*

Tests used:
[1] = system: BALB/c mice with LPS-induced septic shock; assay: Survival of mice with LPS-induced septic shock; type: in vivo; details: LPS 60 mg/kg intraperitoneal, 16 mg/kg injected four times every 12 hrs from 2 hrs after LPS
Procedure: FIG. 5D is a graph showing survival rates of BALB/c mice treated with 16 mg/kg Smaducin-6 or scrambled peptides after septic shock is induced by LPS;
Moreover, therapeutic effects of Smaducin-6 were examined in animal models of septic shock as well as CLP-induced sepsis. In this regard, LPS was intraperitoneally injected at a dose of 60 mg/kg into BALB/c mice, and from two hrs after LPS injection, Smaducin-6 was injected four times at regular intervals of 12 hrs into the mice.

TRAIL = TRAIL expression in splenocytes of CLP mice (flow cytometry, immunohistochemistry); type: in vivo; details: sepsis mice, flow cytometry and immunohistochemistry
Text: FIG. 8E is a graph showing expression levels of TRAIL in splenocytes of mice subcutaneously injected with Smaducin-6 or scrambled peptides at 2 and 14 hrs after sepsis induction by CLP, as measured by FACS, the splenocytes being taken 24 hrs after sepsis induction, and
Also, the effect of Smaducin-6 on the expression of TRAIL in mice with CLP-induced sepsis was examined. Splenocytes from the mice were subjected to flow cytometry and immunohistochemistry for TRAIL in the same manner as in Examples 8B and 8D. In this context, rabbit antibody TRAIL (C92B9, cell signaling), and FITC-conjugated goat antibody to […] (NOVUS) were used as a primary and a secondary antibody, respectively.

GRK2 = assay: LPS-induced GRK2 expression in RAW264.7 macrophages (immunoblot); type: cell-based, mouse; details: RAW264.7 cells, 100 nM for 2 hrs, then LPS 2 hrs
Procedure: To examine how Smaducin-6 interrupts with the LPS-induced downregulation of CXCR2, the levels of G-protein-coupled receptor kinase 2 (GRK2) in human neutrophils and RAW264.7 macrophages were measured. GRK2 is upregualted by LPS, which is known to suppress the expression of CXCR2.

[2] = system: IRAK1-, RIP1- or IKKε-mediated signaling complexes; assay: Co-immunoprecipitation of LPS-induced TLR4 downstream signaling complexes in primary peritoneal macrophages; type: cell-based, mice
Procedure: A co-immunoprecipitation assay was carried out as follows. For use as antibodies in co-immunoprecipitation, mouse anti-HA (F-7), mouse anti-c-Myc (9E10), rabbit anti-IκBα (C-21), mouse anti-IRAK1 (F-4), and mouse anti-TRAF6 (D-10) were purchased from Santa Cruz Biotechnology (USA), the antibodies rabbit anti-Pellino-1 and rabbit anti-IRAK4 from Imgenex, the antibodies rabbit anti-Smad6, rabbit anti-MyD88 (D80F5), rabbit anti-IKKα, rabbit anti-phospho-IKKα/β, rabbit anti-RIP1 (D94C12), rabbit anti-IKKi (anti-IKKE; D61F9), rabbit anti-TBK1 (D1B4), rabbit anti-GRK2 from Cell Signaling, and the antibody anti-β-actin from Sigma. Cells were lysed in a lysis buffer (PBS containing 0.5% Triton X-100, 20 mM HEPES (pH 7.4), 150 mM NaCl, 12.5 mM β-glycerol phosphate, 1.5 mM MgCl2, 10 mM NaF, 2 mM DTT, 1 mM Na3O4V, 2 mM EGTA, 1 mM PMSF and protease inhibitor mixture), and harvested by centrifuging 13,000 rpm for 10 min. For immunoprecipitation, the cell lysate were incubated at 4° C. for 12 hrs with protein-A agarose beads and the above-mentioned antibodies. Afterwards, the beads were washed three times with a lysis buffer, and treated with a 2× sample buffer to separate the co-immunoprecipitates therefrom. The co-immunoprecipitates were boiled, followed by SDS-PAGE.
To examine whether Smaducin-6 interrupts the formation of the downstream signaling complex of TLR4, the cells were pre-treated with Smaducin-6 in the same manner as in Example 1, and analyzed for the LPS-induced formation of the signaling complex using a co-immunoprecipitation method. For control, the same experiment was conducted with scrambled peptides.

IL6 inflammatory gene = assay: LPS-induced IL-6 expression in RAW264.7 cells by quantitative real-time RT-PCR; type: cell-based; details: RAW264.7 mouse macrophages, pre-treatment, then LPS
Procedure: FIG. 4A is a graph showing IL-6 levels in RAW264.7 cells as measured by quantitative real-time RT-PCR after treatment with scrambled peptides (Pal-Scram; 100 nM) or Smaducin-6 and then with LPS,

[3] = system: TUNEL-positive cells in the spleen; assay: TUNEL assay of spleen of mice with CLP-induced sepsis; type: in vivo; details: injected 2 and 14 hrs after CLP, spleen at 24 hrs
Procedure: An examination was made to see whether Smaducin-6 suppresses apoptosis in mice with CLP-induced sepsis. The scrambled peptides or the Smaducin-6 peptide was injected into mice suffering from CLP-induced sepsis from which the spleen was then excised. Smaducin-6 was assayed for anti-apototic activity using the TUNEL method. The expression level of caspase-3, involved in apoptosis, was also determined using an immunohistochemical assay.

IFN-β1 = IFN-β1 in peritoneal fluid (ELISA) and splenocytes (FACS) of CLP mice; type: in vivo; details: injected 2 and 14 hrs after CLP
Text: FIG. 8C is a graph showing levels of the IFN-β1cytokine in peritoneal fluid from mice subcutaneously injected with Smaducin-6 or scrambled peptides at 2 and 14 hrs after sepsis induction by CLP, as analyzed by ELISA, the peritoneal fluid being taken 24 hrs after CLP induction,
FIG. 8D is a graph showing expression levels of IFN-β1 in splenocytes of mice subcutaneously injected with Smaducin-6 or scrambled peptides at 2 and 14 hrs after sepsis induction by CLP, as measured by FACS, the splenocytes being taken 24 hrs after sepsis induction,
To analysis the mechanism of the anti-apoptotic activity of Smaducin-6, an examination was made of the IFN-β1-induced TRAIL expression. In this regard, 2 and 14 hrs after CLP, the scrambled peptides or the Smaducin-6 peptide was injected to the mice, and the expression of IFN-β1 in the peritoneal fluid from the mice was analyzed using ELISA in the same manner as in Example 6. In splenocytes from each mouse group, the expression level of IFN-β1 was determined using flow cytometry (FACS). For flow cytometry, IFN-β1 was detected by FITC-conjugated anti-mouse IFN-β antibody (22400-3, interferon source), and stained before data analysis using CellQuest Pro software (BD Bioscience).

In the case of “Smaducin-6: palmitic acid conjugated to N-terminus of the 20-amino-acid peptide of Smad6 position 422 to 441, GGRALVVRKVPPGYSIKVFD (SEQ ID NO: 1) (Palmitoyl-GGRALVVRKVPPGYSIKVFD)”, the “survival in LPS-induced septic shock” value [1] is reported as “therapeutic”, the “TRAIL expression in splenocytes” value (TRAIL) is reported as “reduced” and the “LPS-induced GRK2 expression” value (GRK2) is reported as “downregualed”. For the same substance, the “LPS-induced formation of the IKKε-mediated signaling complex” value [2] was “suppressed”, the “LPS-induced formation of the IRAK1-mediated signaling complex” value [2] was “suppressed” and the “LPS-induced formation of the RIP1-mediated signaling complex” value [2] was “suppressed”. For the same substance, the “expression of LPS-induced IL6 inflammatory gene” value (IL6 inflammatory gene) was “reduced the expression of LPS-induced IL6 inflammatory gene in a dose-dependent manner”, the “level of TUNEL-positive cells in the spleen” value [3] was “significantly reduced” and the “production of IFN-β1 in peritoneal fluid” value (IFN-β1; ELISA (FIG. 8C)) was “inhibited”. The “expression level of IFN-β1 in splenocytes” value (IFN-β1; FACS (FIG. 8D)) was “inhibited”.
